Experiment [1] concerns the target T1, fatty acyl CoA:cholesterol acyl transferase (ACAT) (Rattus norvegicus, UniProt O70536).
T1 construct: The supernatant, containing the microsomal fraction, served as the source of the cholesterol-esterifying enzyme; from tissue; host or cells: rat adrenals (1000 x g supernatant containing the microsomal fraction)
T1 sequence (O70536 1-545): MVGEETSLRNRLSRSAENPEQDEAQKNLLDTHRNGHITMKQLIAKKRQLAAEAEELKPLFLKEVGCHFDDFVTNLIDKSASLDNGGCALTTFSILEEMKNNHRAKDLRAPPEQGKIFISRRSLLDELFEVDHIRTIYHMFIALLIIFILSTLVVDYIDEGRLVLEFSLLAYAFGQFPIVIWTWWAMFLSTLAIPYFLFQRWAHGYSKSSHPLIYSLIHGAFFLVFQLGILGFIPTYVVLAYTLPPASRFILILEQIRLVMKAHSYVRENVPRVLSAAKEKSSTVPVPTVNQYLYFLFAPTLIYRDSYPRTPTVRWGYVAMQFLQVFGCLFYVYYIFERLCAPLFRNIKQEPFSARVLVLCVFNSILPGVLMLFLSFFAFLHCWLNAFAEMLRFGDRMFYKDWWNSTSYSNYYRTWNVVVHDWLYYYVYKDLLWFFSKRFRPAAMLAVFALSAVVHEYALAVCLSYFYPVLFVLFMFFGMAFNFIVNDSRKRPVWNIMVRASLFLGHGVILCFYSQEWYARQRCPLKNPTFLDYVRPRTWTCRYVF
As to the kind of experiment: Inhibition of ACAT in rat adrenal microsomal supernatant (14C-oleoyl CoA, cholesteryl ester counted). It counts as biochemical. Set-up: dose or concentration left out as unconfirmed. The settings on record: vs control without compound. How it is done: The compounds of the present invention were assayed for two types of biological activity related to their potential use as antiatherosclerotic agents. Compounds were tested in vitro for the ability to inhibit the enzyme fatty acyl CoA:cholesterol acyl transferase (ACAT) and in vivo for serum hypolipidemic activity as measured by their ability to inhibit lipid absorption in rats. The compounds were tested for their ability to inhibit ACAT according to the following procedure:
Rat adrenals were homogenized in 0.2 M monobasic potassium phosphate buffer, pH 7.4, and centrifuged at 1000 times gravity for 15 minutes at 5° C. The supernatant, containing the microsomal fraction, served as the source of the cholesterol-esterifying enzyme, fatty acyl CoA:cholesterol acyl transferase (ACAT). A mixture comprising 50 parts of adrenal supernatant, 10 parts of albumin (BSA) (50 mg./ml.), 3 parts of test compound (final concentration […].) and 500 parts of buffer was preincubated at 37° C. for 10 minutes. After treatment with 20 parts of oleoyl CoA(^14 C-[…]) the mixture was incubated at 37° C. for 10 minutes. A control mixture, omitting the test compound, was prepared and treated in the same manner. The lipids from the incubation mixture were extracted into an organic solvent and separated by thin-layer chromatography. The cholesteryl ester fraction was counted in a scintillation counter. This procedure is a modification of that described by Hashimoto, et al., Life Scie., 12 (Part II), 1-12 (1973).

The test system of experiment [2] is cholesterol absorption. To be noted: po, 0.03 % of diet, 336 h.
Description: Inhibition of cholesterol absorption was determined by feeding male Sprague-Dawley rats, weighing 150-170 g., a 1% cholesterol:0.5% cholic acid diet for 2 weeks. The diet also contained compounds being tested at a dose of 0.03% of the diet. Control rats were fed the same diet without any compound. At the end of the test the rats were sacrificed by decapitation. […] Livers are removed, a 0.4 g sample is taken from the center of the large lobe, and the sample is subjected to saponification using 25% saturated potassium hydroxide in ethanol. The resulting neutral sterols are extracted with petroleum ether and extract analyzed for cholesterol. The effectiveness of the compound in inhibiting cholesterol absorption is measured by the lowering of either serum cholesterol or liver cholesterol relative the values for control rats.
In experiment [3] the test system is cholesterol absorption. The experiment is described as follows: Inhibition of cholesterol absorption in cholesterol/cholic acid fed rats given [4-14C] cholesterol by gavage (fecal 14C sterols). The settings on record: 0.01% to 0.1% of the diet for 2 weeks; [4-14C] cholesterol plus 2 mg. test compound by gavage after 9 days; feces collected 5 days. On the set-up: key: Active: A compound is considered active in inhibiting cholesterol absorption if it meets at least the first two criteria. It counts as in vivo, male Sprague-Dawley rats. The method, then: Inhibition of cholesterol absorption also was determined by feeding male Sprague-Dawley rats, weighing 150-170 g., a 1% cholesterol:0.5% cholic acid diet for 2 weeks. The diet also contained compounds being tested at doses of between 0.01% and 0.1% of the diet. After the rats had been on the test diet for 9 days each rat is given by gavage a sonicated mixture of [4-^14 C] cholesterol (6μCi), 0.2 ml. triolein, 10 mg. cholic acid, 20 mg. cholesterol and 2 mg. of test compound in 0.8 ml. of 10% non-fat dry milk. Feces were collected for each 24 hour period for the remaining 5 days during which the rats were maintained on the 1% cholesterol:0.5% cholic acid plus test compound diet. Fecal ^14 C-neutral sterols were extracted with petroleum ether from saponified feces by the method of Grundy, S. M., et al., J. Lipid Res., 6, 397 (1965) and counted in a scintillation counter. Acidic sterols (bile acids) were extracted by acidifying the saponified feces and extracting in chloroform:methanol (2:1) and counting the chloroform phase in a scintillation counter. Total extraction of radioactivity (98-100%) from saponified feces is realized by this procedure.
Radioactivity in liver and adrenals were determined by saponification and extraction into petroleum ether and counting by scintillation techniques. Total cholesterol in liver and adrenals was determined by the cholorimetric melthod of Zlatkis, A., et al., J. Lab. Clin. Med., 41, 486 (1953) on saponified-organic solvent extracted tissue prepared by the method of Trinder, P., Analyst, 77, 321 (1952). Serum cholesterol and triglycerides were assayed enzymaticaly by the method of Allain, C. C., et al., Clin. Chem., 20, 470 (1974) on a Centrifichem 400 Analyzer. ^14 C-Cholesterol in serum was determined by direct scintillation counting.
The effect of test compounds on cholesterol absorption was determined by:
1. increase in excreted ^14 C-neutral sterol
2. decrease in excreted ^14 C-acidic sterol
3. decrease in ^14 C-cholesterol or ^14 C-cholesteryl ester in the liver
4. decrease in ^14 C-cholesterol or ^14 C-cholesteryl ester in the serum. […]

As for `CCCCCN(CCCCC)C(=O)Nc1ccc(C)cc1C` [1,1-Di-(n-pentyl)-3-(2,4-dimethylphenyl)urea], in experiment [1], the “% Inhibition” value was 90.3%. Moreover, in the experiment with cholesterol absorption [2], the “Result (inhibition of cholesterol absorption: lowering of either serum cholesterol or liver cholesterol relative to control rats)” value is listed as “Active”. Moreover, the “Result (inhibition of cholesterol absorption: increase in excreted 14C-neutral sterol and decrease in excreted 14C-acidic sterol)” value with cholesterol absorption [3] is reported as “Active”.

As to `CCCCN(CCCC)C(=O)Nc1ccc(C)cc1C` [1,1-Di-(n-butyl)-3-(2,4-dimethylphenyl)urea], in experiment [1], the “% Inhibition” value is recorded as 81.1%. In addition, the “Result (inhibition of cholesterol absorption: lowering of either serum cholesterol or liver cholesterol relative to control rats)” value in the experiment on cholesterol absorption [2] was “Active”. Further, the “Result (inhibition of cholesterol absorption: increase in excreted 14C-neutral sterol and decrease in excreted 14C-acidic sterol)” value in the experiment with cholesterol absorption [3] is listed as “Active”.

Consider `CCCCCCN(CCCCCC)C(=O)Nc1ccc(C)cc1C` [1,1-Di-(n-hexyl)-3-(2,4-dimethylphenyl)urea], for which the “% Inhibition” value in experiment [1] was found to be 95.1%. For the same molecule, the “Result (inhibition of cholesterol absorption: lowering of either serum cholesterol or liver cholesterol relative to control rats)” value with cholesterol absorption [2] was “Active”. Besides, the “Result (inhibition of cholesterol absorption: increase in excreted 14C-neutral sterol and decrease in excreted 14C-acidic sterol)” value with cholesterol absorption [3] is “Active”.

What is called % Inhibition is the share of the control response that was lost under treatment.

The values above are taken from patent publication US4387105A, “Methods of treating atherosclerosis with dialkylureas and dialkylthioureas” (priority 1982, dated 1983).
